Laboratory results published in patent US7803399B2, “Delivery system for nucleic acids” (The Scripps Research Institute, priority 2001, dated 2010).
Read-outs that look alike come from different tables or passages of the source.

System: αvβ3 positive M21 Melanoma cells
Test: Cell adhesion inhibition assay on vitronectin coated plates
Format: cell-based
Settings: Homo sapiens
Experimental: Cell adhesion inhibition study was done on plates coated with vitronectin using human melonoma cell line M21. […] After about 1 hour incubation, the wells were washed, and the cells that adhered were stained with a solution of crystal violet and the optical density (OD) at about 590 nm was measured. The OD measured was proportional to the number of cells bound to the vitronectin plate and was plotted against the concentration of component 10 on the surface of the NPs in different formulations to calculate the IC50.
FIG. 8 schematically depicts the cell adhesion assay wherein M21 human melanoma cells, which express αvβ3, were mixed with liposomes covalently conjugated to an integrin antagonist (ligand) or to ligand alone. The cells were then placed on vitronectin plates, washed and stained. The number of bound cells was then counted using a plate counter.

## NCCS(=O)(=O)N[C@@H](CNC(=O)c1ccc(OCCNC2=NCCCN2)cc1)C(=O)O [Liposome 10, 4-[2-(3,4,5,6-Tetrahydropyrimidin-2-ylamino)ethyloxy]benzoyl-2-(S)-aminoethylsulfonamido-β-alanine]
FIG. 9, M21 cells on vitronectin, read-out: IC50 cell adhesion (FIG. 9), antagonist alone
  IC50: 500 µM
M21 cells on vitronectin coated plates, monomeric ligand, read-out: IC50 for inhibition of cell adhesion, free ligand
  IC50: 64 µM
